Source: PubChem BioAssay AID248 (DTP/NCI, 2004)
Several values for one entry are separate records, joined by “and”; a condition that tells them apart may be missing. Equal values may be shown once. Inconclusive results and toxic doses are left out. Cut-off read from the data, not from the text of the source: active = T/C of 150% or more; inactive = T/C below 125%.

System: L1210 leukemia ip in BDF1 mice, survival T/C
Test: NCI In Vivo Anticancer Drug Screen. Data for tumor model L1210 Leukemia (intraperitoneal) in B6D2F1 (BDF1) mice
Conditions: endpoint: mean survival time, higher = longer survival
In short: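 In this screen, tumor-bearing mice given compound are compared to those given vehicle, and their survival values are reported as a treated-to-control quotient.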

[1] = dose: 100.0 mg/kg/injection, schedule: Q01DX001 (ip), vehicle: Klucel (hydroxypropylcellulose) (HPC)
[2] = dose: 100.0 mg/kg/injection, schedule: Q04DX003 (ip), vehicle: Klucel (hydroxypropylcellulose) (HPC)
[3] = dose: 200.0 mg/kg/injection, schedule: Q01DX001 (ip), vehicle: Klucel (hydroxypropylcellulose) (HPC)
[4] = dose: 200.0 mg/kg/injection, schedule: Q04DX003 (ip), vehicle: Klucel (hydroxypropylcellulose) (HPC)
[5] = dose: 400.0 mg/kg/injection, schedule: Q01DX001 (ip), vehicle: Klucel (hydroxypropylcellulose) (HPC)
[6] = dose: 400.0 mg/kg/injection, schedule: Q04DX003 (ip), vehicle: Klucel (hydroxypropylcellulose) (HPC)
[7] = dose: 100.0 mg/kg/injection, schedule: Q04DX002 (ip), vehicle: saline with Tween-80
[8] = dose: 200.0 mg/kg/injection, schedule: Q04DX002 (ip), vehicle: saline with Tween-80
[9] = dose: 100.0 mg/kg/injection, schedule: Q01DX009 (ip), vehicle: saline
[10] = dose: 100.0 mg/kg/injection, schedule: Q04DX003 (ip), vehicle: saline
[11] = dose: 200.0 mg/kg/injection, schedule: Q01DX009 (ip), vehicle: saline
[12] = dose: 200.0 mg/kg/injection, schedule: Q04DX003 (ip), vehicle: saline
[13] = dose: 25.0 mg/kg/injection, schedule: Q04DX003 (ip), vehicle: Klucel (hydroxypropylcellulose) (HPC)
[14] = dose: 100.0 mg/kg/injection, schedule: Q01DX009 (ip), vehicle: Klucel (hydroxypropylcellulose) (HPC)
[15] = dose: 200.0 mg/kg/injection, schedule: Q01DX009 (ip), vehicle: Klucel (hydroxypropylcellulose) (HPC)

Measured: T/C

COC(=O)C1C(c2ccc(-c3ccccc3)cc2)N1C1CCCCC1 (stereo unspecified)
inactive: [1] 96 % of control | [2] 104 % of control | [3] 95 % of control | [4] 107 % of control | [5] 93 % of control | [6] 98 % of control

O=C(COc1cccc(Cl)c1)Nc1cccc(S(=O)(=O)O)c1 (tested in a mixture with another compound)
inactive: [1] 100 % of control | [3] 99 % of control | [5] 87 % of control

O=P(O)(Oc1cccc(Cl)c1)Oc1cccc(Cl)c1
inactive: [7] 115 % of control | [8] 104 % of control

[CH3][Sn]([CH3])([CH3])[Cl]
inactive: dose: 0.12 mg/kg/injection, schedule: Q04DX002 (ip), vehicle: saline 108 % of control | dose: 0.25 mg/kg/injection, schedule: Q04DX002 (ip), vehicle: saline 105 % of control | dose: 0.5 mg/kg/injection, schedule: Q04DX002 (ip), vehicle: saline 108 % of control

COc1ccc(-c2c(C)nc(N)nc2OC)cc1
inactive: [7] 96 % of control | [8] 100 % of control | dose: 400.0 mg/kg/injection, schedule: Q04DX002 (ip), vehicle: saline with Tween-80 96 % of control

Clc1ccc(CSSCc2ccc(Cl)cc2Cl)c(Cl)c1
inactive: dose: 100.0 mg/kg/injection, schedule: Q04DX002 (ip), vehicle: gum acacia 95 % of control | dose: 200.0 mg/kg/injection, schedule: Q04DX002 (ip), vehicle: gum acacia 116 % of control | dose: 400.0 mg/kg/injection, schedule: Q04DX002 (ip), vehicle: gum acacia 100 % of control

CC(=S)NC(=O)Nc1cccc2ccccc12
inactive: [1] 88 % of control | [3] 91 % of control

COc1cc2cc(-c3cc(OC)c(OC)c(OC)c3)c3c(c2cc1OC)CNC3=O
inactive: [9] 90 % of control | [10] 93 % of control | [11] 90 % of control | [12] 101 % of control | dose: 400.0 mg/kg/injection, schedule: Q04DX003 (ip), vehicle: saline 101 % of control

COc1cc2c(c(OC)c1OC)CN(CC1COc3ccccc3O1)CC2 (stereo unspecified)
inactive: dose: 100.0 mg/kg/injection, schedule: Q04DX003 (ip), vehicle: saline with Tween-80 98 % of control | dose: 200.0 mg/kg/injection, schedule: Q04DX003 (ip), vehicle: saline with Tween-80 101 % of control | dose: 400.0 mg/kg/injection, schedule: Q04DX003 (ip), vehicle: saline with Tween-80 96 % of control

CCOC(=O)CCc1c(C(=O)OCC)[nH]c(C)c1C(=O)C(=O)OC
inactive: [13] 101 % of control | dose: 50.0 mg/kg/injection, schedule: Q04DX003 (ip), vehicle: Klucel (hydroxypropylcellulose) (HPC) 98 % of control | [1] 95 % of control | [2] 103 % of control | [3] 93 % of control | [5] 90 % of control

COc1ccc(Cl)cc1NC(=O)c1ccco1
inactive: [14] 89 % of control | [15] 87 % of control | dose: 400.0 mg/kg/injection, schedule: Q01DX009 (ip), vehicle: Klucel (hydroxypropylcellulose) (HPC) 97 % of control

NCCCCCCNC(=O)CCC(=O)NCCCCCCN
inactive: dose: 8.0 mg/kg/injection, schedule: Q01DX Z (ip), vehicle: water 86 % of control | dose: 16.0 mg/kg/injection, schedule: Q01DX Z (ip), vehicle: water 91 % of control | dose: 32.0 mg/kg/injection, schedule: Q01DX Z (ip), vehicle: water 88 % of control | dose: 64.0 mg/kg/injection, schedule: Q01DX Z (ip), vehicle: saline 109 % of control | dose: 64.0 mg/kg/injection, schedule: Q01DX Z (ip), vehicle: water 91 % of control | dose: 128.0 mg/kg/injection, schedule: Q01DX Z (ip), vehicle: saline 88 % of control

O=[N+]([O-])c1cc2c(cc1Br)-c1ccccc1C2
inactive: dose: 100.0 mg/kg/injection, schedule: Q01DX005 (ip), vehicle: Klucel (hydroxypropylcellulose) (HPC) 98 % of control | dose: 100.0 mg/kg/injection, schedule: Q04DX002 (ip), vehicle: Klucel (hydroxypropylcellulose) (HPC) 93 % of control | dose: 200.0 mg/kg/injection, schedule: Q01DX005 (ip), vehicle: Klucel (hydroxypropylcellulose) (HPC) 94 % of control | dose: 200.0 mg/kg/injection, schedule: Q04DX002 (ip), vehicle: Klucel (hydroxypropylcellulose) (HPC) 111 % of control | dose: 400.0 mg/kg/injection, schedule: Q01DX005 (ip), vehicle: Klucel (hydroxypropylcellulose) (HPC) 122 % of control | dose: 400.0 mg/kg/injection, schedule: Q04DX002 (ip), vehicle: Klucel (hydroxypropylcellulose) (HPC) 117 % of control

CCOC(C[N+](C)(C)C)OCC
inactive: dose: 50.0 mg/kg/injection, schedule: Q04DX003 (ip), vehicle: saline 93 % of control | [10] 97 % of control | [12] 101 % of control

NC(CSS(=O)(=O)O)=NCCCCc1ccccc1
inactive: dose: 12.5 mg/kg/injection, schedule: Q04DX002 (ip), vehicle: Klucel (hydroxypropylcellulose) (HPC) 91 % of control | dose: 25.0 mg/kg/injection, schedule: Q04DX002 (ip), vehicle: Klucel (hydroxypropylcellulose) (HPC) 102 % of control

CNC(=S)N/N=C(\C)CSC/C(C)=N/NC(=S)NC
inactive: dose: 1.56 mg/kg/injection, schedule: Q03HX024 (ip), vehicle: Klucel (hydroxypropylcellulose) (HPC) 97 % of control | dose: 3.12 mg/kg/injection, schedule: Q01DX009 (ip), vehicle: Klucel (hydroxypropylcellulose) (HPC) 95 % of control | dose: 3.12 mg/kg/injection, schedule: Q03HX024 (ip), vehicle: Klucel (hydroxypropylcellulose) (HPC) 93 % of control | dose: 6.25 mg/kg/injection, schedule: Q01DX009 (ip), vehicle: Klucel (hydroxypropylcellulose) (HPC) 92 % of control | dose: 6.25 mg/kg/injection, schedule: Q03HX024 (ip), vehicle: Klucel (hydroxypropylcellulose) (HPC) 92 % of control | dose: 6.25 mg/kg/injection, schedule: Q04DX003 (ip), vehicle: Klucel (hydroxypropylcellulose) (HPC) 95 % of control | dose: 12.5 mg/kg/injection, schedule: Q01DX009 (ip), vehicle: Klucel (hydroxypropylcellulose) (HPC) 93 % of control | dose: 12.5 mg/kg/injection, schedule: Q03HX024 (ip), vehicle: Klucel (hydroxypropylcellulose) (HPC) 95 % of control | dose: 12.5 mg/kg/injection, schedule: Q04DX003 (ip), vehicle: Klucel (hydroxypropylcellulose) (HPC) 102 % of control | dose: 25.0 mg/kg/injection, schedule: Q01DX009 (ip), vehicle: Klucel (hydroxypropylcellulose) (HPC) 109 % of control | dose: 25.0 mg/kg/injection, schedule: Q03HX024 (ip), vehicle: Klucel (hydroxypropylcellulose) (HPC) 103 % of control | [13] 97 % of control | dose: 30.0 mg/kg/injection, schedule: Q04DX003 (ip), vehicle: saline 98 % of control | dose: 50.0 mg/kg/injection, schedule: Q01DX009 (ip), vehicle: Klucel (hydroxypropylcellulose) (HPC) 104 % of control | dose: 50.0 mg/kg/injection, schedule: Q03HX024 (ip), vehicle: Klucel (hydroxypropylcellulose) (HPC) 106 % of control | dose: 60.0 mg/kg/injection, schedule: Q04DX003 (ip), vehicle: saline 98 % of control | [14] 108 % of control | dose: 100.0 mg/kg/injection, schedule: Q03HX024 (ip), vehicle: Klucel (hydroxypropylcellulose) (HPC) 116 % of control | [2] 92 % of control | dose: 120.0 mg/kg/injection, schedule: Q04DX003 (ip), vehicle: saline 101 % of control | [15] 96 % of control | [4] 107 % of control | [6] 98 % of control

S=c1cc(-c2ccc(Cl)cc2)ss1
inactive: dose: 50.0 mg/kg/injection, schedule: Q01DX009 (ip), vehicle: saline 93 % of control | [9] 93 % of control and 90 % of control | [10] 92 % of control | [11] 95 % of control and 90 % of control | [12] 100 % of control | dose: 300.0 mg/kg/injection, schedule: Q01DX009 (ip), vehicle: saline 95 % of control | dose: 400.0 mg/kg/injection, schedule: Q01DX009 (ip), vehicle: saline 95 % of control
